Like-named read-outs stand apart in the source and are kept apart here.
Tests used:
[1] = Acute toxicity (oral LD50); design: species or system male Swiss mice; conditions: in vivo, mouse, deaths in ten days, Litchfield and Wilcoxon, limits in parentheses, max dose generally 500 mg/Kg, read-out: DL/50 (mouse os)
Experimental: LD50 was calculated according to Litchfield and Wilcoxon method (J. Pharm. Expt. Ther. 96, 99; 1949). The maximum dose administered was generally 500 mg/Kg.

bronchospasm = assay: Antibronchospastic activity (aerosol ovalbumin, sensitized guinea pigs, oral); type: in vivo, guinea pig; conditions: for Oral antibronchospastic activity (aerosol ovalbumin guinea-pig) A.U.C. 0 → 3h Index: ratio between equieffective doses of theophylline and tested compound, AUC of % inhibition 0-3 h
Experimental: Fasted (16 h) male and female guinea pigs were sensitized by ovalbumin (25 mg/Kg. s.c. and 25 mg/Kg. i.p.) (Herxheimer and Stresemann--Arch. It. Pharmacodyn. Ther. 125.126; 1960). After two weeks, animals were challenged, by an aerosol of 0.5% ovalbumin recording the latency time (T1) of the first bronchospasm. A week later, the test was repeated in the same animals 1-3 hours after drug administration (T2). % of inhibition was determined as [formula] where T1 was control latency time, T2 was latency time after drug administration. […] The area under curve (AUC) expressing the % inhibition plotted toward time (0-3 h) after drug dosing, was calculated.

[2] = system: heart rate and blood pressure; conditions: in vivo, po
Experimental: Fasted (16 h) normotensive male Wistar rats weighing 300-380 g. were used. The animals were prewarmed by means of infrared lamp for 15 min. before recording blood pressure and heart rate with the tale-cuff method (Maffii G. e Coll.--Arch. It. Sci. Farm. 12, 3; 1962). Recording were performed before and 30'-90'--3 h after oral drug administration. […] The % increase in heart rate was plotted against the log dose. […] In table 2 the average value of the indexes was reported.

[3] = Effects on CNS: cardiazole (CZ) induced convulsions; conditions: mouse, in vivo, po
Experimental: (§1) Fasted (20 h) male Swiss mice (20 g b.w.) received orally the compounds 1 h before cardiazole (CZ) or chlordiazepoxide (CDO) administration.
CZ was injected i.p. in a fully convulsive dose which produced death in about 10% of animals (60-100 mg/Kg.). Appropriate dose was determined before each experimental session.
(§2) In the untreated animals, CDO 100 mg/Kg i.p. induced sleep lasting 20-30 min. Sleeping time was defined as the time elapsing from the loss to the recovery of the righting reflex. Pretreated animals were observed up to a maximum of 6 h.

[4] = Effects on CNS: sleeping time following chlordiazepoxide (CDO) treatment; conditions: mouse, in vivo, po
Experimental: as §1, §2

Row | SMILES | LD50 at 240 h [1] [µmol/kg] | Oral antibronchospastic activity (aerosol ovalbumin guinea-pig) A.U.C. 0 → 3h Index (bronchospasm) | Tachycardic effects (rat os) Index [2] | other results
1 | CCCn1c(=O)c2c(nnn2CCN(CC)CC)n(-c2ccccc2)c1=O [MX8257] | > 1350 | 1,8 | 0 | –
2 | CCCn1c(=O)c2nn(CCN(CC)CC)nc2n(-c2ccccc2)c1=O [MX8258] | > 1350 | 1,6 | 0 | –
3 | CCCn1c(=O)c2c(nnn2CCN(C)C)n(CC(C)CC)c1=O (centres unmarked) [MX8271] | > 1480 | 1,9 | 0 | –
4 | CCCn1c(=O)c2nn(CCN(C)C)nc2n(CC(C)CC)c1=O (centres unmarked) [MX8272] | 1370 | 2,1 | 0 | –
5 | CCCn1c(=O)c2c(nnn2CCN2CCCCC2)n(-c2ccccc2)c1=O [MX82103] | 910 | 1,7 | 0 | –
6 | CCCn1c(=O)c2nn(CCN3CCCCC3)nc2n(-c2ccccc2)c1=O [MX82104] | 1310 | 2,1 | 0 | –
7 | CCCn1c(=O)c2c(nnn2CCN2CCOCC2)n(-c2ccccc2)c1=O [MX82105, 1-n-propyl-3-phenyl-7-(2-morpholinoethyl)-8-azaxanthine] | > 1300 | 2,4 | 0 | –
8 | CCCn1c(=O)c2nn(CCN3CCOCC3)nc2n(-c2ccccc2)c1=O [MX82106, 1-n-propyl-3-phenyl-8-(2-morpholinoethyl)-8-azaxanthine] | > 1300 | 2,9 | 0 | –
9 | CCC(C)Cn1c(=O)[nH]c(=O)c2c1nnn2CCN(CC)CC (centres unmarked) [MX82108] | > 1550 | 1,3 | 0 | –
10 | CCC(C)Cn1c(=O)[nH]c(=O)c2nn(CCN(CC)CC)nc21 (centres unmarked) [MX82109] | > 1550 | 1,1 | 0,3 | –
11 | Cn1c(=O)c2[nH]cnc2n(C)c1=O [THEOPHYLLINE, 1.3-dimethylxanthine, reference compound] | – | – | – | ED50 (bronchospasm; Cavia porcellus, po, guinea pig, 0.5% ovalbumin aerosol, read-out: ED50, inhibition of bronchoconstriction): 250 µmol/kg; blood pressure effect ([2]; rat): slight hypotension; heart rate effect ([2]; rat): marked dose-dependent tachycardia; dosage producing a 30% increase in heart rate ([2]; rat, 30 min): 0.21 mmol/kg; dosage producing a 30% increase in heart rate ([2]; rat, 90 min): 0.36 mmol/kg; dosage producing a 30% increase in heart rate ([2]; rat, 180 min): 0.57 mmol/kg; ED50 [3]: 150 µmol/kg; ED50 [4]: 75 µmol/kg

— patent publication US4931437A, “8-azaxanthine derivatives, and pharmaceutical compositions containing them” (Malesci Istituto Farmacobiologico S.p.A., priority 1986, dated 1990)
